Measured values: US4647685A, “2-alkoxy-1-((2-trialkylaminoethoxy)phosphinyloxy)-alkenes and alkynes, hydroxy inner salts” (Eli Lilly and Company, priority 1985, dated 1987)
Counter-ions that a name gives are not always drawn.

Legend:
CCRF-CEM cell line = assay: Inhibition of growth of human leukemic cells (CCRF-CEM Cytotoxicity Screen); type: cell-based; details: in vitro, read-out: IC50 (concentration giving 50% growth inhibition)
[1] = tested on: X-5563 (multiple myeloma); assay: Activity against X-5563 (multiple myeloma) tumor maintained in C3H mice; type: in vivo; details: I.P. daily for 10 days, tumors measured days 10 to 12
Description: (§1) The following protocol was employed. The tumor was removed from passage animals and minced into 1 to 3 mm square fragments using sterile techniques. Tumor pieces were checked for sterility using both Antibiotic Medium 1 and Brain Heart Infusion (Difco; Detroit, MI). Recipient mice were shaved and tumor pieces were implanted subcutaneously in the axillary region by trocar. Drug therapy on the appropriate schedule was initiated on the day after tumor implant. The compound was dissolved in saline for all experiments. All animals were weighed at the beginning and end of drug treatment. Food and water were provided ad libitum. Each test group contains 5 animals. On days 10 to 12, two dimensional measurements (width and length) of all tumors were taken using vernier calipers. Tumor weights were calculated from these measurements using the following formula:
Tumor Weight (mg)=Tumor Length (mm) X Tumor Width (mm)^2 /2
(§2) For all data, the tumor weight was rounded to the nearest tenth of a gram for analysis. No group is included in the analysis for therapeutic activity in which deaths attributable to drug toxicity exceeded 30 percent of the treated group.
(§3) In Table 2 which follows, column 1 gives the name of the compound; column 2, the dose level; column 3, the percent inhibition of the tumor; and column 4, the toxic deaths. Drug and control doasges were administered I.P. daily for 10 days.

[2] = Toxic deaths in the X-5563 (multiple myeloma) tumor test; type: in vivo, C3H mice; details: I.P. daily for 10 days
Description: as §1, with “formula: […]” for “formula:”
as §2, §3

Row | SMILES | IC50 (CCRF-CEM cell line) [µg/mL] | Percent Inhibition of Tumor ([1]; 50 mg/kg) [%] | Toxic Deaths ([2]; 50 mg/kg) | Percent Inhibition of Tumor ([1]; 70 mg/kg) [%] | Toxic Deaths ([2]; 70 mg/kg)
1 | CCCCCCCC/C=C\CCCCCCCC(COP(=O)([O-])OCC[N+](C)(C)C)OCC (racemic) [(Z)-(±)-2-ethoxy-1-[(2-trimethylaminoethoxy)phosphinyloxy]-10-nonadecene, hydroxy inner salt] | 1.6 | 47 | 1/10 | – | –
2 | CCCCC/C=C\C/C=C\CCCCCCCC(COP(=O)([O-])OCC[N+](C)(C)C)OCC (racemic) [(Z,Z)-(±)-2-Ethoxy-1-[(2-trimethylaminoethoxy)phosphinyloxy]-10,13 nonadecadiene, hydroxy inner salt] | 6 | – | – | 31 | 2/10
3 | CCCCC/C=C\C/C=C\CCCCCCCC(COP(=O)([O-])OCC[N+](C)(C)C)OC (racemic) [(Z,Z)-(±)-2-Methoxy-1-[(2-trimethylaminoethoxy)phosphinyloxy]-10,13-nonadecadiene, hydroxy inner salt] | 4.2 | – | – | – | –
